From patent US6500846B1, “CDK inhibitors having flavone structure” (LG Chemical, Ltd., priority 1998, dated 2002)

Tests used:
CDK4/cyclin D1 = target: T1, CDK4/cyclin D1 (Homo sapiens, UniProt P11802); assay: Inhibitory activity against CDK4/cyclin D1 enzyme (GST-RB phosphorylation, P32-γ-ATP, scintillation counting); type: biochemical; conditions: CDK4/cyclin D1, 100 μM ATP, GST-RB substrate, 30° C. 30 minutes
T1 construct: made in house; host or cells: insect cells infected with baculoviruses
Protocol: (§1) Analysis of inhibitory activity against CDK2/cyclin A and CDK4/cyclin D1 enzyme.
(§2) The inhibitory activity against CDK2 is measured by referring to Kitagawa, M. et al., Oncogene 9:2549, 1994 and the inhibitory activity against CDK4 is measured by referring to Carlson, B. A. et al., Cancer Research 56:2473,1996.
(§3) As for CDK2, either the extract from the insect cell infected both with baculovirus which expresses CDK2 gene and baculovirus which expresses cyclin A gene or the active enzyme which had been purified therefrom was used. CDK4 enzyme was also obtained from the insect cell infected both with baculovirus expressing CDK4 gene and baculovirus expressing cyclin D1 gene. As the substrate for CDK2, either histon H1 or Rb protein was used. Rb protein was also used as the substrate for CDK4.
(§4) Specifically the activities of enzymes CDK2/cyclin A and CDK4/cyclin D1 were determined according to the following procedure.
(§5) 100 ng of enzyme was reacted in a total 1000 μl of 20 mM Tris (pH 8.0), 100 mM NaCl, 10 mM MgCl2 buffer solution containing 20 μg of GST-RB protein, 100 μM of ATP and 5 μCi of P32-γ-ATP at 30° C. for 30 minutes. Then, the enzyme reaction was stopped by adding EDTA to a concentration of 20 mM. Subsequently, 30 μl of 50% glutathione bead (purchased from Pharmacia) was added to attach GST-RB to the bead, which was washed three times with 20mM Tris (pH 8.0), 100 mM NaCl, 10 mM EDTA solution, and then scintillation counting was carried out. To analyze the inhibitory activity of the compound, the inhibitor having a proper concentration was added to the enzyme reaction solution, and then the enzyme activity was measured according to the above method.
(§6) The inhibitory activity of the compound of formula (1) according to the present invention against CDK2 and CDK4 is represented as IC50 value. The compounds which are not included in Examples(compound 63, 64, 65 and 66) were synthesized and purified according to the same procedure as examples, and then IC50 thereof was measured.

CDK2/cyclin A = target: T2, CDK2/cyclin A (Homo sapiens, UniProt P24941); assay: Inhibitory activity against CDK2/cyclin A enzyme (GST-RB phosphorylation, P32-γ-ATP, scintillation counting); type: biochemical; conditions: 100 μM ATP, GST-RB substrate, 30° C. 30 minutes
T2 construct: made in house; host or cells: insect cells infected with baculoviruses
Protocol: as §1, §2, §3, §4, §5, §6

T1 sequence (P11802 whole entry, species assumed): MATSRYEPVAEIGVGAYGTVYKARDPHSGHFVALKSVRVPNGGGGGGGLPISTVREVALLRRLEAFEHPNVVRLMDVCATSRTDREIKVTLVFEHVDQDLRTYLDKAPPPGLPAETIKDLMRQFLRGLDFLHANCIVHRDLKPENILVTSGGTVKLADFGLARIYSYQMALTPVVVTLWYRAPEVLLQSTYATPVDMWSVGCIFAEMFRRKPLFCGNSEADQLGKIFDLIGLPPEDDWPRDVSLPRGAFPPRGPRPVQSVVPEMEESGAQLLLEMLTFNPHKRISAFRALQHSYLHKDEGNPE
T1 sequence (P24385 whole entry partner, species assumed): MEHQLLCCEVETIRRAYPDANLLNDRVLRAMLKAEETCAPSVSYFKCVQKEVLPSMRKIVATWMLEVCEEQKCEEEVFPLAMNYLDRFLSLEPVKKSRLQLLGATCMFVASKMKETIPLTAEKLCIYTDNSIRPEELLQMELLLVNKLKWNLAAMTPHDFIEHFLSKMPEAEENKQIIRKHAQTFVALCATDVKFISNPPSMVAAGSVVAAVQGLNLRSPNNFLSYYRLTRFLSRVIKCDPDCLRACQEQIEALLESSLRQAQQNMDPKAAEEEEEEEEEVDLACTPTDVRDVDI

SMILES	IC50 (CDK4/cyclin D1)	IC50 (CDK2/cyclin A)
COc1ccc(-c2oc3cc(OC)ccc3c(=O)c2O)cc1 [Compound 7, 3-hydroxy-7-methoxy-2-(4-methoxy-phenyl)-chromen-4-one]	> 100 µM	> 100 µM
O=c1c(O)c(-c2ccc(O)c(O)c2)oc2ccc(NS(=O)(=O)c3ccc(F)cc3F)cc12 [Compound 42, N-[2-(3,4-dihydroxyphenyl)-3-hydroxy-4-oxo-4H-chromen-6-yl]-2,4-difluorobenzenesulfonamide]	4.3 µM	46 µM
O=c1c(O)c(-c2ccc(O)c(O)c2)oc2ccc(NS(=O)(=O)NC3CCCCC3)cc12 [Compound 47, N-Cyclohexyl-N′-[2-(3,4-dihydroxyphenyl)-3-hydroxy-4-oxo-4H-chromen-6-yl]sulfamide]	2 µM	65 µM
COc1ccc2c(=O)c(O)c(-c3ccc(Cl)cc3)oc2c1 [Compound 8, 2-(4-chloro-phenyl)-3-hydroxy-7-methoxy-chromen-4-one]	> 100 µM	> 100 µM
O=C(Nc1ccc([N+](=O)[O-])cc1)Nc1ccc2oc(-c3ccc(O)c(O)c3)c(O)c(=O)c2c1 [Compound 61, N-[2-(3,4-dihydroxyphenyl)-3-hydroxy-4-oxo-4H-chromen-6-yl]-N′-(4-nitrophenyl)urea]	1.7 µM	5.6 µM
O=c1c(O)c(-c2ccc(O)c(O)c2)oc2ccc(NS(=O)(=O)c3ccc(Br)cc3)cc12 [Compound 29, 4-bromo-N-[2-(3,4-dihydroxyphenyl)-3-hydroxy-4-oxo-4H-chromen-6-yl]benzenesulfonamide]	1.8 µM	17.8 µM
COc1ccc(-c2oc3ccccc3c(=O)c2O)cc1 [Compound 11, 3-hydroxy-2-(4-methoxy-phenyl)-chromen-4-one]	> 100 µM	> 100 µM
O=c1c(O)c(-c2ccc(O)c(O)c2)oc2ccc(NS(=O)(=O)CCCCl)cc12 [Compound 41, 3-chloro-N-[2-(3,4-dihydroxyphenyl)-3-hydroxy-4-oxo-4H-chromen-6-yl]-1-propanesulfonamide]	6.5 µM	20 µM
O=c1c(O)c(-c2ccc(O)c(O)c2)oc2c(Br)cc(Br)cc12 [Compound 20, 6,8-Dibromo-2-(3,4-dihydroxyphenyl)-3-hydroxy-4H-chromen-4-one]	< 5 µM	< 5 µM
O=c1c(O)c(-c2ccc(O)c(O)c2)oc2c(Cl)cc(Cl)cc12 [Compound 19, 6,8-dichloro-2-(3,4-dihydroxyphenyl)-3-hydroxy-4H-chromen-4-one]	< 10 µM	< 10 µM
O=C(Nc1ccc2oc(-c3ccc(O)c(O)c3)c(O)c(=O)c2c1)Nc1ccc(Cl)cc1Cl [Compound 59, N-(2,4-dichlorophenyl)-N′-[2-(3,4-dihydroxyphenyl)-3-hydroxy-4-oxo-4H-chromen-6-yl]-urea]	10 µM	20 µM
O=c1c(O)c(-c2ccc(O)c(O)c2)oc2ccc(Cl)cc12 [Compound 12, 6-chloro-2-(3,4-dihydroxyphenyl)-3-hydroxy-4H-chromen-4-one]	< 10 µM	< 5 µM
O=C(Nc1ccccc1)Nc1ccc2oc(-c3ccc(O)c(O)c3)c(O)c(=O)c2c1 [Compound 56, N-[2-(3,4-dihydroxyphenyl)-3-hydroxy-4-oxo-4H-chromen-6-yl]-N′-phenylurea]	4.2 µM	5 µM
Cc1cc2oc(-c3ccc(O)c(O)c3)c(O)c(=O)c2cc1Cl [Compound 22, 6-chloro-2-(3,4-dihydroxyphenyl)-3-hydroxy-7-methyl-4H-chromen4-one]	< 10 µM	< 10 µM
O=c1c(O)c(-c2ccc(O)c(O)c2)oc2cc(O)ccc12 [Compound 64, 2-(3,4-dihydroxyphenyl)-3,7-dihydroxy-4H-chromen-4-one]	< 10 µM	< 5 µM
O=c1c(O)c(-c2ccc(O)c(O)c2)oc2ccc(NS(=O)(=O)c3ccc(F)cc3)cc12 [Compound 43, N-[2-(3,4-dihydroxyphenyl)-3-hydroxy-4-oxo-4H-chromen-6-yl]-4-fluorobenzenesulfonamide]	2.1 µM	8.6 µM
COc1cccc2oc(-c3ccc4c(c3)OCO4)c(O)c(=O)c12 [Compound 4, 2-(benzo[1,3]dioxol-5-yl)-3-hydroxy-5-methoxy-chromen-4-one]	> 100 µM	> 100 µM
Nc1ccc2oc(-c3ccc(O)c(O)c3)c(O)c(=O)c2c1 [Compound 15, 6-amino-2-(3,4-dihydroxyphenyl)-3-hydroxy-4H-chromen-4-one]	< 5 µM	< 5 µM
O=c1c(O)c(-c2ccc(O)c(O)c2)oc2ccccc12 [Compound 63, 2-(3,4-dihydroxyphenyl)-3-hydoxy-4H-chromen-4-one]	< 10 µM	< 10 µM
O=C(NCc1ccccc1)Nc1ccc2oc(-c3ccc(O)c(O)c3)c(O)c(=O)c2c1 [Compound 54, N-benzyl-N′-[2-(3,4-dihydroxyphenyl)-3-hydroxy-4-oxo-4H-chromen-6-yl]urea]	2.8 µM	2.3 µM
O=c1c(O)c(-c2ccc(O)c(O)c2)oc2c(F)cc(F)cc12 [Compound 21, 6,8-difluoro-2-(3,4-dihydroxyphenyl)-3-hydroxy-4H-chromen-4-one]	< 10 µM	< 10 µM
O=c1c(O)c(-c2ccc(O)c(O)c2)oc2ccc(Br)cc12 [Compound 13, 6-bromo-2-(3,4-dihydroxyphenyl)-3-hydroxy-4H-chromen-4-one]	< 5 µM	< 5 µM
O=c1c(O)c(-c2ccc(O)c(O)c2)oc2cc(O)cc(O)c12 [Compound 65, 2-(3,4-dihydroxyphenyl)-3,5,7-trihydroxy-4H-chromen-4-one]	< 50 µM	< 50 µM
CN(C)c1cccc2c(S(=O)(=O)Nc3ccc4oc(-c5ccc(O)c(O)c5)c(O)c(=O)c4c3)cccc12 [Compound 32, N-[2-(3,4-dihydroxyphenyl)-3-hydroxy-4-oxo-4H-chromen-6-yl]-5-(dimethylamino)-1-naphthalenesulfonamide]	4.2 µM	35.5 µM
O=c1c(O)c(-c2ccc(O)c(O)c2)oc2ccc(NS(=O)(=O)c3ccc(Cl)c([N+](=O)[O-])c3)cc12 [Compound 40, 4-chloro-N-[2-(3,4-dihydroxyphenyl)-3-hydroxy-4-oxo-4H-chromen-6-yl]-3-nitrobenzenesulfonamide]	2.5 µM	80 µM
COc1ccc2c(=O)cc(-c3ccccc3)oc2c1 [Compound 2, 7-methoxy-2-phenyl-chromen-4-one]	> 200 µM	> 200 µM
O=c1c(O)c(-c2ccc(O)c(O)c2)oc2ccc(NS(=O)(=O)c3ccc(-c4ccccc4)cc3)cc12 [Compound 35, N-[2-(3,4-Dihydroxyphenyl)-3-hydroxy-4-oxo-4H-chromen-6-yl]-[1,1′-biphenyl]-4-sulfonamide]	2 µM	4 µM
COc1ccc2oc(-c3ccc(O)c(O)c3)c(O)c(=O)c2c1 [Compound 16, 2-(3,4-dihydroxyphenyl)-3-hydroxy-6-methoxy-4H-chromen-4-one]	< 10 µM	< 10 µM
O=c1c(O)c(-c2ccc(O)c(O)c2)oc2ccc(NS(=O)(=O)c3ccc4c(c3)CNCC4)cc12 [Compound 46, N-[2-(3,4-dihydroxyphenyl)-3-hydroxy-4-oxo-4H-chromen-6-yl]-1,2,3,4-tetrahydro-7-isoquinolinesulfonamide]	6.3 µM	82 µM
